Results as given in patent US20200163938A1, “PHARMACEUTICAL COMPOSITION COMPRISING IRON CHELATOR EXHIBITING ANTITUMOR ACTIVITY, ANTIBACTERIAL ACTIVITY AND/OR ANTIVIRUS ACTIVITY, AND HAVING REDUCED SIDE EFFECTS” (priority 2017, published 2020).
≈ marks a conversion by molar mass, not a printed value. Where “and” joins values, the source holds several entries; their conditions need not be identical. Equal entries are not always repeated. Where two headings read alike, the source gives them in different places. Blank lines part the entries; values can stand above or below the compound they belong to.

How the values were obtained:
[1] = test system: P. aeruginosa (ATCC9027; Pseudomonas aeruginosa); assay: Minimum growth inhibition concentration (MIC); assay type: cell-based; conditions: 24 hours; for MIC: Pseudomonas aeruginosa, ATCC9027
Description: (§1) The dilution series of the chelating agent of each test group was prepared according to a standard method, microbes were inoculated, and then 24 hours later, the microbial growth was confirmed, thereby determining the minimum growth inhibition concentration of the chelating agent of each test group. Microbes used herein were S. aureus (ATCC6538; Staphylococcus aureus), P. aeruginosa (ATCC9027; Pseudomonas aeruginosa) and C. albicans (ATCC10231; Candida albicans). Drugs used herein were oxacillin, vancomycin and deferasirox as positive controls.

[2] = test system: S. aureus (ATCC6538; Staphylococcus aureus); assay: Minimum growth inhibition concentration (MIC); assay type: cell-based; conditions: for MIC: Staphylococcus aureus, ATCC6538; for MIC / MIC S. aureus: 24 hours
Description: as §1

[3] = test system: C. albicans (ATCC10231; Candida albicans); assay: Minimum growth inhibition concentration (MIC); assay type: cell-based
Description: as §1

S. mutans (ATCC25175) = assay: Antibacterial activity, turbidity and ATP assay; assay type: cell-based, Streptococcus mutans; conditions: aerobic culture 37° C., 18 hours; FIGS. 6A, 6B
Description: First, the antibacterial activity of a dental caries-causing bacterium, S. mutans (ATCC25175) was examined. With the use of a liquid medium prepared by adding a yeast extract and the chelating agent of each test group to TSB medium, aerobic culture was performed at 37° C. for 18 hours, and then turbidity was found from optical density (OD570 or 595 nm). Cell activity was measured using an ATP assay kit (Kikkoman Corporation). Results were as depicted in FIGS. 6A and 6B.

[4] = test system: A. actinomycetemcomitans AaY4 (ATCC); assay: Antibacterial activity, turbidity and ATP assay; assay type: cell-based, Aggregatibacter actinomycetemcomitans; conditions: anaerobic culture 37° C., 18 hours; FIGS. 7A, 7B
Description: A bacterial strain of one of periodontopathic bacteria, A. actinomycetemcomitans, used herein was AaY4 (ATCC). With the use of a liquid medium prepared by adding a yeast extract, sodium bicarbonate and the chelating agent of each test group to TSB medium, anaerobic culture (Anaeropack-anaerobic) was performed at 37° C. for 18 hours. Turbidity was measured using absorbance (OD570 or 595 nm), and cell activity was measured using an ATP assay kit. Results were as depicted in FIGS. 7A and 7B.

[5] = test system: Human lung cancer cell line (A549) subcutaneous tumors; assay: In vivo antitumor effects, A549 subcutaneous tumors in nude mice
Description: Antitumor effects were confirmed using animal models. Specifically, nude mice (BALB/c nu/nu, 6 weeks old: Clea Japan Inc.) were provided. Human lung cancer cell line (A549) was adjusted at 3×10^6/mouse, and then mixed with Matrigel (BD Biosciences) at 1:1. The thus obtained mixture was administered to mice, thereby forming subcutaneous tumors. At 1 week after the formation of subcutaneous tumors, mice were divided into a negative control group (saline: 4 mice), a test group 9 administration group (test group 9: 3 mice), and a positive control group (deferasirox: 3 mice), and then subjected to oral administration. The dosage of deferasirox was 20 mg/kg/day (5 times/week administration) corresponding to that specified for humans in the package insert. Test group 9 was administered in the same dosage as that of deferasirox. Results were as depicted in FIGS. 4A and 4B.

[6] = assay type: in vivo; parameters: NEFA: unit not given here; conditions: for Body weight: rats
Description: To a negative control group (saline administration; n=6), the same amount of saline was administered. On day 14 after administration, determining life or death, measurement of body weight, physical items (respiration, body temperature, behavior, etc.) were observed. Moreover, blood samples were taken from each group, and the right kidneys and the livers were removed. Results were as depicted in FIG. 5A to 5C and Tables 4 to 9.

[7] = rat blood, oral 200 mg/kg, day 14
[8] = rat blood, oral 1000 mg/kg, day 14
[9] = rat blood, oral 1000 mg/kg, day 14, 1000 mg/kg

MIC [1]: > 250 µg/mL
MIC [2]: 250 µg/mL (≈ 670 µM)
MIC ([3]; Candida albicans, ATCC10231, 24 hours): > 250 µg/mL
SMILES: O=C(O)c1ccc(-n2nc(-c3ccccc3O)nc2-c2ccccc2O)cc1 [Deferasirox, deferasirox, reference compound]

SMILES: Cc1onc(-c2ccccc2)c1C(=O)N[C@@H]1C(=O)N2[C@@H]1SC(C)(C)[C@@H]2C(=O)O [Oxacillin, oxacillin, reference compound]
MIC [1]: 1020 µg/mL (≈ 2550 µM)
MIC [2]: 0.25 µg/mL (≈ 0.623 µM)

MIC P. aeruginosa [1]: >800 µg/mL
MIC S. aureus [2]: 800 µg/mL
MIC C. albicans ([3]; 24 hours): 800 µg/mL
SMILES: Cl.OCC1OC(O)C(NCc2ccc(O)c(O)c2)C(O)C1O (centres unmarked) [Test group 5]
antimicrobial effects on S. mutans (turbidity, ATP activity) (S. mutans (ATCC25175)): strong antimicrobial effects
antimicrobial effects on C. albicans (in words) ([3]; from Table 10): exhibited antimicrobial effects
antimicrobial effects on A. actinomycetemcomitans (turbidity, ATP activity) [4]: strong antimicrobial effects

MIC P. aeruginosa [1]: >800 µg/mL
MIC S. aureus [2]: >800 µg/mL
MIC C. albicans ([3]; 24 hours): >800 µg/mL
SMILES: Cl.O=C(O)c1cc(CNC2C(O)OC(CO)C(O)C2O)ccc1O (centres unmarked) [Test group 7]

SMILES: Cl.O=C(O)[C@H](Cc1c[nH]cn1)NCc1ccc(O)c(O)c1 [Test group 8]
MIC P. aeruginosa [1]: >800 µg/mL
MIC S. aureus [2]: 800 µg/mL
antimicrobial effects on S. aureus (in words) ([2]; from Table 10): antimicrobial effects
MIC C. albicans ([3]; 24 hours): >800 µg/mL

SMILES: Cl.O=C(O)c1cc(CN[C@@H](Cc2c[nH]cn2)C(=O)O)ccc1O [Test group 9]
MIC P. aeruginosa [1]: >500 µg/mL
MIC S. aureus [2]: >500 µg/mL
MIC C. albicans ([3]; 24 hours): >500 µg/mL
in vivo antitumor effects ([5]; A549 subcutaneous tumors, nude mice, oral 20 mg/kg/day (5 times/week), FIG. 4A): antitumor effects were exhibited to an extent almost equivalent to that in the positive control group
body weight change ([5]; mouse, in vivo, po, 20 mg/kg/day): no significant change was observed in body weight
death during the experiment ([5]; nude mice, oral 20 mg/kg/day (5 times/week)): no mice died during the experiment
ALP [6, 7]: 695 IU/L
ALT [6, 7]: 24 IU/L
AST [6, 7]: 54 IU/L
BUN [6, 7]: 22.8 mg/dL
CRE [6, 7]: 0.37 mg/dL
Ca [6, 7]: 11.1 mg/dL
GLU [6, 7]: 214 mg/dL
K [6, 7]: 4.7 mEQ/L
LD [6, 7]: 49 IU/L
NEFA [6, 7]: 59
Na [6, 7]: 146 mEQ/L
T-Bil [6, 7]: 0.05 mg/dL
TP [6, 7]: 5.5 g/dL
CRE [6, 8]: 0.36 mg/dL
T-Bil [6, 8]: 0.06 mg/dL
ALP [6, 9]: 563 IU/L and 502 IU/L
ALT [6, 9]: 24 IU/L and 25 IU/L
AST [6, 9]: 59 IU/L and 58 IU/L
BUN [6, 9]: 22.5 mg/dL and 24.4 mg/dL
Ca [6, 9]: 10.0 mg/dL and 11.2 mg/dL
GLU [6, 9]: 195 mg/dL and 301 mg/dL
K [6, 9]: 3.6 mEQ/L and 4.8 mEQ/L
LD [6, 9]: 78 IU/L and 70 IU/L
Na [6, 9]: 143 mEQ/L and 144 mEQ/L
TP [6, 9]: 5.4 g/dL and 5.9 g/dL
Body weight ([6]; oral 200 mg/kg): 190.97 g
Body weight ([6]; oral 1000 mg/kg, 1000 mg/kg): 177.11 g and 183.15 g

SMILES: CN[C@H](CC(C)C)C(=O)N[C@H]1C(=O)N[C@@H](CC(N)=O)C(=O)N[C@H]2C(=O)N[C@H]3C(=O)N[C@H](C(=O)N[C@H](C(=O)O)c4cc(O)cc(O)c4-c4cc3ccc4O)[C@H](O)c3ccc(c(Cl)c3)Oc3cc2cc(c3O[C@@H]2O[C@H](CO)[C@@H](O)[C@H](O)[C@H]2O[C@H]2C[C@](C)(N)[C@H](O)[C@H](C)O2)Oc2ccc(cc2Cl)[C@H]1O [Vancomycin, vancomycin, reference compound]
MIC [1]: > 50 µg/mL
MIC [2]: 1.6 µg/mL (≈ 1.1 µM)
